# From patent publication US20230255884A1, “FINISHED FIBROUS SRUCTURES AND METHODS OF THEIR USE AND PREPARATION” (CLEXIO BIOSCIENCES LTD., priority 2019, published 2023)
# Where a name gives a salt, the structure may show the parent alone. Read-outs that look alike come from different tables or passages of the source.
# Key:
# [1] = Example 16: diclofenac in the mother liquor by HPLC; assay type: physicochemical
# [2] = Example 16: % Add on of diclofenac compositions (10% Diclofenac sodium salt, 10% PEG 400, 10% propylene glycol, 2% Polysorbate 80), 60° C., 1 h, squeezed; assay type: physicochemical
# Protocol: The samples were then removed from their vessels, squeezed, weighed and left to dry overnight at room temperature before their dry weight and percentage Add on were determined.
# [3] = Example 20: loading kinetics, aqueous 10% lidocaine, 10% PEG 400, 10% propylene glycol, 2% Polysorbate 80, 60° C., pre-cut shapes of 91.4% polyamide/8.6% elastane, squeezed; assay type: physicochemical
# [4] = Example 11: % Add on from aqueous lidocaine without excipients, 60° C., 1 h, 91.4% polyamide/8.6% elastane; assay type: physicochemical
# [5] = assay type: physicochemical; conditions: 25° C.
# [6] = Example 26: leveling; % lidocaine Add on from extraction in 0.01M HCl and HPLC; assay type: physicochemical
# [7] = Example 22: % Add on by humectant and permeation enhancer concentration, 60° C., 1 h, squeezed; assay type: physicochemical; conditions: 3% lidocaine
# [8] = Example 21: % Add on by finish composition, 60° C., 1 h, 91.4% polyamide/8.6% elastane; assay type: physicochemical
# [9] = Example 23: % Add on by surfactant concentration, 60° C., 1 h; assay type: physicochemical; conditions: 3% lidocaine
# [10] = Example 9: % Add on of 91.4% polyamide/8.6% elastane after 1 h in aqueous 10% PEG 400, 10% propylene glycol, 2% Polysorbate 80 with lidocaine, dried overnight at RT; assay type: physicochemical
# [11] = 3% lidocaine, 2% Polysorbate 80
# [12] = 3% lidocaine, 10% PEG 400, 2% Polysorbate 80
# [13] = 3% lidocaine, 10% PEG 400, 10% propylene glycol
# [14] = 3% lidocaine, 10% PEG 400, 10% propylene glycol, 2% Polysorbate 80
# [15] = 3% lidocaine, 10% propylene glycol
# [16] = 3% lidocaine, 10% propylene glycol, 2% Polysorbate 80
smiles,measurement,setting,value
"O=C(O)Cc1ccccc1Nc1c(Cl)cccc1Cl [Diclofenac, Diclofenac sodium salt]",diclofenac concentration in the mother liquor,[1]; ethanol based liquor,90.76 mg/g
same,diclofenac concentration in the mother liquor,[1]; water based liquor,93.68 mg/g
same,% Add on,"[2]; NaOH 1 drop, pH 13.2",32.0%
same,% Add on,"[2]; NaOH 1 drop, pH 14.0",46.0%
same,% Add on,"[2]; ethanol 13.6% (w/w), no NaOH, pH 8.3",44.1%
same,% Add on,"[2]; no ethanol, no NaOH, pH 8.5",42.2%
"CCN(CC)CC(=O)Nc1c(C)cccc1C [Lidocaine, lidocaine]",% Add on,"[3]; loading time 1 min, Combined",29.915%
same,% Add on,"[3]; loading time 1 min, Shape A",29.820%
same,% Add on,"[3]; loading time 1 min, Shape B",27.838%
same,% Add on,"[3]; loading time 1 min, Shape C",30.455%
same,% Add on,"[3]; loading time 1 min, Shape D",31.547%
same,% Add on,"[3]; loading time 2 min, Combined",35.227%
same,% Add on,"[3]; loading time 2 min, Shape A",34.985%
same,% Add on,"[3]; loading time 2 min, Shape B",36.019%
same,% Add on,"[3]; loading time 2 min, Shape C",34.260%
same,% Add on,"[3]; loading time 2 min, Shape D",35.643%
same,% Add on,"[3]; loading time 3 min, Combined",36.500%
same,% Add on,"[3]; loading time 3 min, Shape A",37.273%
same,% Add on,"[3]; loading time 3 min, Shape B",36.782%
same,% Add on,"[3]; loading time 3 min, Shape C",35.879%
same,% Add on,"[3]; loading time 3 min, Shape D",36.064%
same,% Add on,"[3]; loading time 6 min, Combined",41.938%
same,% Add on,"[3]; loading time 6 min, Shape A",42.242%
same,% Add on,"[3]; loading time 6 min, Shape B",44.328%
same,% Add on,"[3]; loading time 6 min, Shape C",40.764%
same,% Add on,"[3]; loading time 6 min, Shape D",40.418%
same,% Add on,"[3]; loading time 10 min, Combined",41.190%
same,% Add on,"[3]; loading time 10 min, Shape A",39.998%
same,% Add on,"[3]; loading time 10 min, Shape B",44.262%
same,% Add on,"[3]; loading time 10 min, Shape C",40.939%
same,% Add on,"[3]; loading time 10 min, Shape D",39.560%
same,% Add on,"[3]; loading time 60 min, Combined",44.374%
same,% Add on,"[3]; loading time 60 min, Shape B",41.509%
same,% Add on,"[3]; loading time 60 min, Shape C",48.701%
same,% Add on,"[3]; loading time 60 min, Shape D",41.556%
same,% Add on,"[3]; loading time 120 min, Combined",42.458%
same,% Add on,"[3]; loading time 120 min, Shape A",42.233%
same,% Add on,"[3]; loading time 120 min, Shape B",43.286%
same,% Add on,"[3]; loading time 120 min, Shape C",43.679%
same,% Add on,"[3]; loading time 120 min, Shape D",40.635%
same,% Add on,"[3]; loading time 180 min, Combined",41.691%
same,% Add on,"[3]; loading time 180 min, Shape A",42.281%
same,% Add on,"[3]; loading time 180 min, Shape B",40.802%
same,% Add on,"[3]; loading time 180 min, Shape C",42.474%
same,% Add on,"[3]; loading time 180 min, Shape D",41.206%
same,% Add on,"[4]; lidocaine 0.1% w/w, dried at RT",1.03%
same,% Add on,"[4]; lidocaine 0.1% w/w, squeezed",1.09%
same,% Add on,"[4]; lidocaine 0.4% w/w, dried at RT",2.86%
same,% Add on,"[4]; lidocaine 0.4% w/w, squeezed",2.91%
same,% Add on,"[4]; lidocaine 1% w/w, dried at RT",8.03%
same,% Add on,"[4]; lidocaine 1% w/w, squeezed",7.57%
same,% Add on,"[4]; lidocaine 3% w/w, dried at RT",22.17%
same,% Add on,"[4]; lidocaine 3% w/w, squeezed",28.01%
same,% Add on,"[4]; lidocaine 5% w/w, dried at RT",31.61%
same,% Add on,"[4]; lidocaine 5% w/w, squeezed",39.06%
same,% Add on,"[4]; lidocaine 10% w/w, dried at RT",102.39%
same,% Add on,"[4]; lidocaine 10% w/w, squeezed",30.39%
same,% Add on,"[4]; lidocaine 15% w/w, dried at RT",62.68%
same,% Add on,"[4]; lidocaine 15% w/w, squeezed",98.46%
same,% Add on,"[4]; lidocaine 25% w/w, dried at RT",56.33%
same,% Add on,"[4]; lidocaine 25% w/w, squeezed",148.02%
same,% Add on,"[5]; lidocaine 0.1%, dried at RT",42.31%
same,% Add on,"[5]; lidocaine 0.1%, squeezed",7.23%
same,% Add on,"[5]; lidocaine 0.1%, washed in NaOH",2.74%
same,% Add on,"[5]; lidocaine 0.1%, washed in water",1.40%
same,% Add on,"[5]; lidocaine 25%, dried at RT",118.56%
same,% lidocaine Add on,[6]; exposure to 0.01M HCl 1 hr,18.86%
same,% lidocaine Add on,[6]; exposure to 0.01M HCl 2 hr,18.07%
same,% lidocaine Add on,[6]; exposure to 0.01M HCl 4 hr,18.78%
same,% lidocaine Add on,[6]; exposure to 0.01M HCl 6 hr,18.25%
same,% lidocaine Add on,[6]; exposure to 0.01M HCl 22 hr,18.04%
same,Mean % Add on,"[7]; 2% PEG 400, 2% Polysorbate 80",16.59%
same,Mean % Add on,"[7]; 2% propylene glycol, 2% Polysorbate 80",14.96%
same,Mean % Add on,"[7]; 8% PEG 400, 2% Polysorbate 80",26.06%
same,Mean % Add on,"[7]; 8% propylene glycol, 2% Polysorbate 80",15.93%
same,Mean % Add on,"[7]; 15% PEG 400, 2% Polysorbate 80",30.96%
same,Mean % Add on,"[7]; 15% propylene glycol, 2% Polysorbate 80",14.84%
same,Mean % Add on,"[7]; 20% PEG 400, 2% Polysorbate 80",37.95%
same,Mean % Add on,"[7]; 20% propylene glycol, 2% Polysorbate 80",16.03%
same,Mean % Add on (dried at RT),[8]; 3% lidocaine only,37.25%
same,Mean % Add on (squeezed),[8]; 3% lidocaine only,20.27%
same,Mean % Add on (dried at RT),[8]; [11],19.10%
same,Mean % Add on (squeezed),[8]; [11],14.97%
same,Mean % Add on (dried at RT),"[8]; 3% lidocaine, 10% PEG 400",54.02%
same,Mean % Add on (squeezed),"[8]; 3% lidocaine, 10% PEG 400",32.03%
same,Mean % Add on (dried at RT),[8]; [12],42.88%
same,Mean % Add on (squeezed),[8]; [12],24.91%
same,Mean % Add on (dried at RT),[8]; [13],56.37%
same,Mean % Add on (squeezed),[8]; [13],30.01%
same,Mean % Add on (dried at RT),[8]; [14],40.92%
same,Mean % Add on (squeezed),[8]; [14],25.73%
same,Mean % Add on (dried at RT),[8]; [15],34.89%
same,Mean % Add on (squeezed),[8]; [15],21.14%
same,Mean % Add on (dried at RT),[8]; [16],19.34%
same,Mean % Add on (squeezed),[8]; [16],14.48%
same,Mean % Add on (dried at RT),[9]; 2% Polysorbate 80,16.18%
same,Mean % Add on (dried at RT),[9]; 5% Polysorbate 80,22.89%
same,Mean % Add on (dried at RT),[9]; 8% Polysorbate 80,21.18%
same,Mean % Add on (dried at RT),[9]; 10% PEG 400,39.67%
same,Mean % Add on (dried at RT),[9]; 10% Polysorbate 80,24.11%
same,Mean % Add on (dried at RT),[9]; 10% propylene glycol,23.99%
same,Mean % Add on (dried at RT),[9]; 15% Polysorbate 80,33.29%
same,Mean % Add on (dried at RT),[9]; 20% Polysorbate 80,38.08%
same,% Add on,"[10]; lidocaine 0.1% (w/w), 2-8° C.",25.93%
same,% Add on,"[10]; lidocaine 0.1% (w/w), 50° C.",32.73%
same,% Add on,"[10]; lidocaine 0.1% (w/w), 80° C.",32.20%
same,% Add on,"[10]; lidocaine 0.1% (w/w), RT",23.91%
same,% Add on,"[10]; lidocaine 0.5% (w/w), 2-8° C.",31.48%
same,% Add on,"[10]; lidocaine 0.5% (w/w), 50° C.",29.79%
same,% Add on,"[10]; lidocaine 0.5% (w/w), 80° C.",23.91%
same,% Add on,"[10]; lidocaine 0.5% (w/w), RT",26.79%
same,% Add on,"[10]; lidocaine 1% (w/w), 2-8° C.",34.00%
same,% Add on,"[10]; lidocaine 1% (w/w), 50° C.",64.44%
same,% Add on,"[10]; lidocaine 1% (w/w), 80° C.",32.14%
same,% Add on,"[10]; lidocaine 1% (w/w), RT",33.96%
same,% Add on,"[10]; lidocaine 3% (w/w), 2-8° C.",40.00%
same,% Add on,"[10]; lidocaine 3% (w/w), 50° C.",56.52%
same,% Add on,"[10]; lidocaine 3% (w/w), 80° C.",48.98%
same,% Add on,"[10]; lidocaine 3% (w/w), RT",43.75%
same,% Add on,"[10]; lidocaine 5% (w/w), 2-8° C.",60.00%
same,% Add on,"[10]; lidocaine 5% (w/w), 50° C.",46.00%
same,% Add on,"[10]; lidocaine 5% (w/w), 80° C.",64.91%
same,% Add on,"[10]; lidocaine 5% (w/w), RT",47.27%
same,% Add on,"[10]; lidocaine 8% (w/w), 2-8° C.",50.00%
same,% Add on,"[10]; lidocaine 8% (w/w), 50° C.",64.15%
same,% Add on,"[10]; lidocaine 8% (w/w), 80° C.",89.13%
same,% Add on,"[10]; lidocaine 8% (w/w), RT",58.00%
same,% Add on,"[10]; lidocaine 10% (w/w), 2-8° C.",55.77%
same,% Add on,"[10]; lidocaine 10% (w/w), 50° C.",74.55%
same,% Add on,"[10]; lidocaine 10% (w/w), 80° C.",78.72%
same,% Add on,"[10]; lidocaine 10% (w/w), RT",102.04%
same,% Add on,"[10]; lidocaine 15% (w/w), 2-8° C.",69.77%
same,% Add on,"[10]; lidocaine 15% (w/w), 50° C.",95.74%
same,% Add on,"[10]; lidocaine 15% (w/w), 80° C.",117.78%
same,% Add on,"[10]; lidocaine 15% (w/w), RT",116.98%
same,% Add on,"[10]; lidocaine 20% (w/w), 2-8° C.",78.72%
same,% Add on,"[10]; lidocaine 20% (w/w), 50° C.",107.41%
same,% Add on,"[10]; lidocaine 20% (w/w), 80° C.",116.00%
same,% Add on,"[10]; lidocaine 20% (w/w), RT",134.04%
same,% Add on,"[10]; lidocaine 25% (w/w), 2-8° C.",132.08%
same,% Add on,"[10]; lidocaine 25% (w/w), 50° C.",124.00%
same,% Add on,"[10]; lidocaine 25% (w/w), 80° C.",132.56%
same,% Add on,"[10]; lidocaine 25% (w/w), RT",269.57%
